Results on one compound are retold here after publication PMC1713233, “Implantation Serine Proteinases heterodimerize and are critical in hatching and implantation” (BMC Developmental Biology, 2006).

For the experiment, the target named is T1, ISP1-ISP2 enzyme complex (Mus musculus, UniProt Q924N9+Q99MS4).
T1 construct: The native ISP enzyme complex was purified from mouse uterine tissue homogenates; from tissue; host or cells: uterus of pregnant CD1 mice (4.5-6.5 dpc)
Put plainly: Substrate affinity (Km) of synthetic chromogenic substrates for ISP enzyme complex. Conditions: Km = [S] at 1/2 Vmax. It counts as biochemical. As to the method: To determine the substrate specificity of the ISP complex and to classify it into a subclass of the S1 family of serine proteinases, enzyme assays were carried out using different p-nitroanilide linked peptide (1–3 mer) substrates. These included chymotrypsin-like (Tyr/Phe at cleavage (P1) site), trypsin-like (Arg/Lys at P1 position), elastase-like (Ala at P1 position), and subtilisin-like (Leu at P1 position) substrates. In order to compare affinity of specific substrates and derive Michaelis Menton constant (Km) values, the kinetic curves were plotted (substrate conc. [S] vs. rate of reaction [v]).
Chromogenic assays were carried out using the p-Nitroanilide conjugated peptidic substrates. The reaction conditions used were: 4 mM BAPNA (substrate), in 25 mM Tris.Cl (pH 8.0) and 10 mM EDTA reaction buffer, in a total reaction volume of 0.5 mL. The reactions were carried out at room temperature in a glass cuvette (1 cm path length), and scanned at wavelength maxima of 405 nm using a spectrophotometer. 1 Unit of enzyme is defined as enzyme activity sufficient for the breakdown of 1 μM of substrate/ml/min. The affinity of ISP complex with various substrates was characterized by measuring enzyme activity at differing substrate concentrations and plotting enzyme activity [V] vs. substrate concentration [S]. The Km was calculated using the Michaelis Menton equation (Km = [S] at 1/2 Vmax).

Residues, ends and D or L forms follow the SMILES beside them. *: point of attachment. pNA = O=[N+]([O-])c1ccc(N*)cc1; Bz = O=C(c1ccccc1)*

T1 sequence (Q924N9 27-274): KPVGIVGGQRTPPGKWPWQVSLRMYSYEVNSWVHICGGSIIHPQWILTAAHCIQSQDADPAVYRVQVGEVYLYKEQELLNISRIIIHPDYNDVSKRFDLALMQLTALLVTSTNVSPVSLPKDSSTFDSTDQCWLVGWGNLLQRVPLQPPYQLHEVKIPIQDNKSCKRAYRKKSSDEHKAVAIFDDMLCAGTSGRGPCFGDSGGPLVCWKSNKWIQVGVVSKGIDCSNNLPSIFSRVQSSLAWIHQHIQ
T1 sequence (Q99MS4 18-279): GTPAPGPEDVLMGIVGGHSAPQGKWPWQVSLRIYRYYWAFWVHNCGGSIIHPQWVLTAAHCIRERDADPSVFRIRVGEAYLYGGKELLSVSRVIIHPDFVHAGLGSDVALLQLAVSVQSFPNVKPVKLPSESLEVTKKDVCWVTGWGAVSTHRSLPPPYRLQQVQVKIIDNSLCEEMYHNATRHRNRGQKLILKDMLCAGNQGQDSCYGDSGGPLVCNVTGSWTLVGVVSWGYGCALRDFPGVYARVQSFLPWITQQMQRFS

With `CC(C)[C@H](NC(=O)[C@H](Cc1ccccc1)NC(=O)c1ccccc1)C(=O)N[C@@H](CCCN=C(N)N)C(=O)Nc1ccc([N+](=O)[O-])cc1` [BPVANA, N-Benzoyl-Phe-Val-Arg-pNA] (Bz-Phe-Val-Arg-pNA), the Km stood at 60 µM.
